Values belong to the compound of their own block, whether it stands above or below them.
Experiments:
[1] = test system: muscle progenitors (hMP) from DMD hiPSC or WT hiPSC; assay: Myotube assay: myogenic activity (total myotube area per well); type: cell-based, human; conditions: Homo sapiens, 72 h, myotube assay, compounds incubated 3 days; for Emax: read-out: MA (normalized Myotube Area, efficacy); for EC50: 10 points dose-response 1.5 nM to 30 μM, read-out: EC50 (myogenic activity, half-maximal generation of myotubes)
In short: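 DMD or WT hiPSC-derived muscle progenitors plated on collagen I in K5 medium with 5 μM Y-27632, treated with compound (1.5 nM–30 μM) for 3 days at 37° C. Cells were fixed, stained for alpha-actinin and imaged for total myotube area per well. EC50 and normalized myotube area (MA) taken from duplicate-averaged data.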

[2] = test system: satellite-like cells (Pax7-positive cells) in hMP; assay: Myotube assay: Pax7-positive (satellite-like) cell quantification; type: cell-based, human; design: key to Pax7% (pool of Pax7-positive cells) / Pax7: −: Depletes the pool of cells, while positively affects the myotubes; +: Maintains or increases the pool of cells, with at least 1 of the highest concentration known to be cytotoxic; ++: Maintains or increases the pool of cells, without any toxicity; conditions: myotube assay, compounds incubated 3 days
In short: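 DMD hiPSC-derived muscle progenitors (hMP) proliferated 4 days, then plated on collagen I in K5 medium with 5 μM Y-27632. Compound added at 1.5 nM–30 μM for 3 days at 37° C, then cells fixed and immunostained. Pax7-positive cells counted as percentage of total nuclei, duplicates averaged.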

Compound: CCOC(=O)Nc1cc(Oc2ccc(NC(=O)Nc3cc(C(C)(C)C)on3)c(SC)c2)ccn1 [(di), Ethyl (4-(4-(3-(5-(tert-butyl)isoxazol-3-yl)ureido)-3-(methylthio)phenoxy)pyridin-2-yl)carbamate]
- Emax [1]: ≥ 75%
- Pax7% (pool of Pax7-positive cells) [2]: ++

Compound: CC(C)(C)c1cc(NC(=O)Nc2ccc(Oc3ccnc4[nH]c(=O)cnc34)cc2F)[nH]n1 [(h), 1-(3-(tert-butyl)-1H-pyrazol-5-yl)-3-(2-fluoro-4-((3-oxo-3,4-dihydropyrido[2,3-b]pyrazin-8-yl)oxy)phenyl)urea]
- Emax [1]: 25 to 50%
- Pax7% (pool of Pax7-positive cells) [2]: +

Compound: CSc1cc(Oc2ccnc3[nH]c(=O)cnc23)ccc1NC(=O)Nc1nc(C(C)(C)C)cs1 [(ca), 1-(4-(tert-butyl)thiazol-2-yl)-3-(2-(methylthio)-4-((3-oxo-3,4-dihydropyrido[2,3-b]pyrazin-8-yl)oxy)phenyl)urea]
- Emax [1]: ≥ 75%
- Pax7% (pool of Pax7-positive cells) [2]: ++

Compound: CCOC(=O)Nc1cc(Oc2ccc(NC(=O)Nc3cc(C(C)(C)C)nn3-c3ccccc3)c(SC)c2)ccn1 [(cv), Ethyl (4-(4-(3-(3-(tert-butyl)-1-phenyl-1H-pyrazol-5-yl)ureido)-3-(methylthio)phenoxy)pyridin-2-yl)carbamate]
- Emax [1]: ≥ 75%
- Pax7% (pool of Pax7-positive cells) [2]: +

Compound: CC(C)(C)c1cc(NC(=O)Nc2ccc(Oc3ccncc3)cc2F)n(-c2ccccc2)n1 [(ad), 1-(3-(tert-butyl)-1-phenyl-1H-pyrazol-5-yl)-3-(2-fluoro-4-(pyridin-4-yloxy)phenyl)urea]
- Emax [1]: 25 to 50%
- Pax7% (pool of Pax7-positive cells) [2]: ++

Compound: CC(=O)n1nc(C(C)(C)C)cc1NC(=O)Nc1ccc(Oc2ccnc3[nH]c(=O)cnc23)cc1F [(o), 1-(1-acetyl-3-(tert-butyl)-1H-pyrazol-5-yl)-3-(2-fluoro-4-((3-oxo-3,4-dihydropyrido[2,3-b]pyrazin-8-yl)oxy)phenyl)urea]
- Emax [1]: 25 to 50%
- Pax7% (pool of Pax7-positive cells) [2]: ++

Compound: CSc1cc(Oc2ccnc3[nH]c(=O)cnc23)ccc1NC(=O)Nc1ncc(C(C)(C)C)s1 [(ah), 1-(5-(tert-butyl)thiazol-2-yl)-3-(2-(methylthio)-4-((3-oxo-3,4-dihydropyrido[2,3-b]pyrazin-8-yl)oxy)phenyl)urea]
- Emax [1]: ≥ 75%
- Pax7% (pool of Pax7-positive cells) [2]: ++

Compound: CC(C)(C)c1cc(NC(=O)Nc2ccc(Oc3ccccc3)cc2F)n(-c2ccccc2)n1 [(ac), 1-(3-(tert-butyl)-1-phenyl-1H-pyrazol-5-yl)-3-(2-fluoro-4-phenoxyphenyl)urea]
- Emax [1]: 50 to 75%
- Pax7% (pool of Pax7-positive cells) [2]: ++

Compound: CSc1cc(Oc2ccnc3[nH]c(=O)cnc23)ccc1NC(=O)Nc1cc(C(C)(C)C)no1 [(bx), 1-(3-(tert-butyl)isoxazol-5-yl)-3-(2-(methylthio)-4-((3-oxo-3,4-dihydropyrido[2,3-b]pyrazin-8-yl)oxy)phenyl)urea]
- Emax [1]: ≥ 75%
- Pax7% (pool of Pax7-positive cells) [2]: ++

Compound: O=C(Nc1ccc(Oc2ccnc3[nH]c(=O)cnc23)cc1F)Nc1c2c(nn1-c1ccccc1)CCC2 [(x), 1-(2-fluoro-4-((3-oxo-3,4-dihydropyrido[2,3-b]pyrazin-8-yl)oxy)phenyl)-3-(2-phenyl-2,4,5,6-tetrahydrocyclopenta[c]pyrazol-3-yl)urea]
- Emax [1]: 25 to 50%
- Pax7% (pool of Pax7-positive cells) [2]: ++

Compound: CC(C)(C)c1cc(NC(=O)Nc2ccc(Oc3ccnc4[nH]c(=O)cnc34)c(F)c2F)n(-c2ccccc2)n1 [(bo), 1-(3-(tert-butyl)-1-phenyl-1H-pyrazol-5-yl)-3-(2,3-difluoro-4-((3-oxo-3,4-dihydropyrido[2,3-b]pyrazin-8-yl)oxy)phenyl)urea]
- Emax [1]: ≥ 75%
- Pax7% (pool of Pax7-positive cells) [2]: +

- EC50 [1]: 1 to 5 µM
Compound: COc1cc(Oc2ccnc3[nH]c(=O)cnc23)ccc1NC(=O)Nc1cc(C(C)(C)C)nn1-c1ccccc1 [(bc), 1-(3-(tert-butyl)-1-phenyl-1H-pyrazol-5-yl)-3-(2-methoxy-4-((3-oxo-3,4-dihydropyrido[2,3-b]pyrazin-8-yl)oxy)phenyl)urea]
- Emax [1]: ≥ 75%
- Pax7% (pool of Pax7-positive cells) [2]: ++

- EC50 [1]: < 0.5 µM
Compound: CNCC(=O)Nc1cc(Oc2ccc(NC(=O)Nc3cc(C(C)(C)C)nn3-c3ccccc3)c(SC)c2)ccn1 [(bq), N-(4-(4-(3-(3-(tert-butyl)-1-phenyl-1H-pyrazol-5-yl)ureido)-3-(methylthio)phenoxy)pyridin-2-yl)-2-(methylamino)acetamide]
- Emax [1]: ≥ 75%
- Pax7% (pool of Pax7-positive cells) [2]: +

Compound: Cc1ccc(-n2nc(C(C)(C)C)cc2NC(=O)Nc2ccc(Oc3ccnc4[nH]c(=O)cnc34)cc2C(F)(F)F)cc1 [(az), 1-(3-(tert-butyl)-1-(p-tolyl)-1H-pyrazol-5-yl)-3-(4-((3-oxo-3,4-dihydropyrido[2,3-b]pyrazin-8-yl)oxy)-2-(trifluoromethyl)phenyl)urea]
- Emax [1]: ≥ 75%
- Pax7% (pool of Pax7-positive cells) [2]: ++

Compound: CC(C)(C)c1nnc(NC(=O)Nc2ccc(Oc3ccnc4[nH]c(=O)cnc34)cc2F)s1 [(r), 1-(5-(tert-butyl)-1,3,4-thiadiazol-2-yl)-3-(2-fluoro-4-((3-oxo-3,4-dihydropyrido[2,3-b]pyrazin-8-yl)oxy)phenyl)urea]
- Emax [1]: ≥ 75%
- Pax7% (pool of Pax7-positive cells) [2]: ++

Compound: CC(=O)Nc1cc(Oc2ccc(NC(=O)Nc3cc(C(C)(C)C)nn3-c3ccccc3)c(F)c2)ccn1 [(ae), N-(4-(4-(3-(3-(tert-butyl)-1-phenyl-1H-pyrazol-5-yl)ureido)-3-fluorophenoxy)pyridin-2-yl)acetamide]
- Emax [1]: 50 to 75%
- Pax7% (pool of Pax7-positive cells) [2]: +

Compound: CSc1cc(Oc2ccnc(NS(C)(=O)=O)c2)ccc1NC(=O)Nc1cc(C(C)(C)C)no1 [(dl), N-(4-(4-(3-(3-(tert-butyl)isoxazol-5-yl)ureido)-3-(methylthio)phenoxy)pyridin-2-yl)methanesulfonamide]
- Emax [1]: ≥ 75%
- Pax7% (pool of Pax7-positive cells) [2]: ++

Compound: CC(C)(C)c1cnc(NC(=O)Nc2ccc(Oc3ccnc4[nH]c(=O)cnc34)c3ccccc23)s1 [(ba), 1-(5-(tert-butyl)thiazol-2-yl)-3-(4-((3-oxo-3,4-dihydropyrido[2,3-b]pyrazin-8-yl)oxy)naphthalen-1-yl)urea]
- Emax [1]: ≥ 75%
- Pax7% (pool of Pax7-positive cells) [2]: ++

Compound: CC(C)(C)c1cc(NC(=O)Nc2ccc(Oc3ccncc3)cc2)n(-c2ccccc2)n1 [(bl), 1-(3-(tert-butyl)-1-phenyl-1H-pyrazol-5-yl)-3-(4-(pyridin-4-yloxy)phenyl)urea]
- Emax [1]: 50 to 75%
- Pax7% (pool of Pax7-positive cells) [2]: +

Compound: CCOC(=O)Nc1cc(Oc2ccc(NC(=O)Nc3ncc(C(C)(C)C)s3)c(SC)c2)ccn1 [(df), Ethyl (4-(4-(3-(5-(tert-butyl)thiazol-2-yl)ureido)-3-(methylthio)phenoxy)pyridin-2-yl)carbamate]
- Emax [1]: ≥ 75%
- Pax7% (pool of Pax7-positive cells) [2]: +

Compound: CSc1cc(Oc2ccnc3[nH]c(=O)cnc23)ccc1NC(=O)Nc1cc(C(C)(C)C)nn1CCCN1CCOCC1 [(bh), 1-(3-(tert-butyl)-1-(3-morpholinopropyl)-1H-pyrazol-5-yl)-3-(2-(methylthio)-4-((3-oxo-3,4-dihydropyrido[2,3-b]pyrazin-8-yl)oxy)phenyl)urea]
- Emax [1]: ≥ 75%
- Pax7% (pool of Pax7-positive cells) [2]: ++

Compound: CSc1cc(Oc2ccnc3c2OCCN3)ccc1NC(=O)Nc1cc(C(C)(C)C)nn1-c1ccccc1 [(cy), 1-(3-(tert-butyl)-1-phenyl-1H-pyrazol-5-yl)-3-(4-((3,4-dihydro-2H-pyrido[3,2-b][1,4]oxazin-8-yl)oxy)-2-(methylthio)phenyl)urea]
- Emax [1]: ≥ 75%
- Pax7% (pool of Pax7-positive cells) [2]: +

Compound: CSc1cc(Oc2ccnc3c2ncc(=O)n3C)ccc1NC(=O)Nc1cc(C(C)(C)C)nn1-c1ccccc1 [(au), 1-(3-(tert-butyl)-1-phenyl-1H-pyrazol-5-yl)-3-(4-((4-methyl-3-oxo-3,4-dihydropyrido[2,3-b]pyrazin-8-yl)oxy)-2-(methylthio)phenyl)urea]
- Emax [1]: ≥ 75%
- Pax7% (pool of Pax7-positive cells) [2]: ++

Compound: CSc1cc(NC(=O)Nc2cc(C(C)(C)C)nn2-c2ccccc2)ccc1Oc1ccnc2[nH]c(=O)cnc12 [(dn), 1-(3-(tert-butyl)-1-phenyl-1H-pyrazol-5-yl)-3-(3-(methylthio)-4-((3-oxo-3,4-dihydropyrido[2,3-b]pyrazin-8-yl)oxy)phenyl)urea]
- Emax [1]: ≥ 75%
- Pax7% (pool of Pax7-positive cells) [2]: +

Compound: CSc1cc(Oc2ccnc3nccnc23)ccc1NC(=O)Nc1cc(C(C)(C)C)nn1-c1ccccc1 [(bs), 1-(3-(tert-butyl)-1-phenyl-1H-pyrazol-5-yl)-3-(2-(methylthio)-4-(pyrido[2,3-b]pyrazin-8-yloxy)phenyl)urea]
- Emax [1]: ≥ 75%
- Pax7% (pool of Pax7-positive cells) [2]: ++

Compound: CNC(=O)c1cc(Oc2ccc(NC(=O)Nc3cc(C(C)(C)C)nn3-c3ccccc3)c(SC)c2)ccn1 [(br), 4-(4-(3-(3-(tert-butyl)-1-phenyl-1H-pyrazol-5-yl)ureido)-3-(methylthio)phenoxy)-N-methylpicolinamide]
- Emax [1]: ≥ 75%
- Pax7% (pool of Pax7-positive cells) [2]: ++

- EC50 [1]: 1 to 5 µM
Compound: CNC(=O)c1cc(Oc2cccc(NC(=O)Nc3cc(C(C)(C)C)nn3-c3ccccc3)c2)ccn1 [(aa), 4-(3-(3-(3-(tert-butyl)-1-phenyl-1H-pyrazol-5-yl)ureido)phenoxy)-N-methylpicolinamide]
- Emax [1]: 50 to 75%
- Pax7% (pool of Pax7-positive cells) [2]: ++
